We go through 7 compounds from US9205091B2, “Diazeniumdiolated compounds, pharmaceutical compositions, and method of treating cancer” (The United States of America, as represented by the …, priority 2009, dated 2015).

One may read the IC50 as the concentration needed to halve the response being measured. Higher therefore signals a need for much substance.

One data set concerns SAPK/JNK and p38. In words: Tiron pre-treatment before JS-36-25, stress kinase phosphorylation. The conditions noted are these: 10 mM Tiron 1 hour, then 30 minutes 1 μM JS-36-25. Type of data set: cell-based, human. As for the experimental part: Immunoblotting: For protein immunoblotting the cells are harvested in lysis buffer (25 mM Hepes buffer containing 150 mM NaCl, 10 mM MgCl2, 1% Nonidet P40, 0.25% sodium deoxycholate, 10% glycerol, 2.5 mM EDTA, supplemented with Complete proteinase inhibitors cocktail (Behringer). Cell extracts are resolved by SDS-polyacrylamide gel electrophoresis (4-12% Bis-Tris gels or 3-8% Tris-acetate gels, Invitrogen Life Technologies, Carlsbad, Calif.) then immunoblotted to PVDF membrane (Invitrogen). Antibodies to phospho-ATM, Phospho-ATR, cleaved caspases 3 and 7, phospho-SAPK/JNK and SAPK/JNK, phospho-ATF2, phospho-p38 and p38, phospho-c-jun and c-jun, and PARP are purchased from Cell Signaling Technology (Danvers, Mass.). Anti-ATF3 polyclonal antibodies are from Santa Cruz Biotechnology (Santa Cruz, Calif.). […] The cells are pre-treated for 1 hour with 10 mM Tiron, followed by 30 minutes incubation with 1 μM of JS-36-25. In the Tiron-treated cells phosphorylation of both SAPK/JNK and p38 by JS-36-25 is diminished in comparison with JS-36-25-only treated cells (FIG. 3C).

The subject of another data set is H1703 cell line. Briefly: Tiron protection against JS-K toxicity. In kind it is cell-based, human.
The test system of a further data set is H1373. In words: CellTiter 96 MTT cell proliferation assay (Example 9). In kind it is cell-based, human. On the procedure: (§1) Cell lines derived from human non-small cell lung cancers are obtained from American Type Culture Collection (ATCC, Manassas, Va.), and are designated by their NCI numbers. Cells are maintained in RPMI 1640 medium (Gibco, Invitrogen, Carlsbad, Calif.), supplemented with 10% fetal calf serum (Gemini Bio-Products, Sacramento, Calif.), 100 U/mL penicillin/streptomycin, and 2 mM glutamine at 37° C. and 5% CO2.
(§2) For proliferation assays cells are seeded at 2×10^4/well in 96-well plates, allowed to adhere for 24 hrs, and then are treated with the drug or DMSO as a control for 48 hours. […] Compounds are prepared as 10 mM stock solution in dimethyl sulfoxide (Sigma, St. Louis, Mo.). Increasing drug concentrations in 10 μL of phosphate-buffered saline (PBS) are added to 100 μL of the culture medium and incubated at 37° C. for 72 h. The CellTiter 96 non-radioactive cell proliferation assay (MTT assay, Promega, Madison, Wis.), is performed according to the manufacturer's protocol. Each compound concentration is represented in six repeats, and the screening is performed as at least two independent experiments. IC50 values are calculated using Sigma Plot software (Systat Software).
(In general: Formazan colour is commonly taken as a measure of viable cells.)

A further data set concerns H1703. The description is as above. In kind it is cell-based, human. On the procedure: as §1, §2
The test system of the next data set is H1944. The description is as above. In kind it is cell-based, human. On the procedure:
as §1, §2

The next data set relates to H2122. Described as above. Type of data set: cell-based, human. As for the experimental part: as §1, §2
In another data set the test system is H441. The data set is described as above. Type of data set: cell-based, human. On the procedure: as §1, §2
The nature of data set [1]: Rate of reaction with 4 mM glutathione (stability study, HPLC). In kind it is physicochemical. Particulars: for t½ (min) Mean (SE): 4 mM glutathione (GSH), aqueous pH 7.4 phosphate buffered saline, 37° C.; for half-life upon treatment with glutathione (GSH): in comparison with that of JS-K. On the procedure: 490 μL of 2.25% Pluronic P123 in PBS is aliquoted into glass HPLC vials and maintained at 50° C. To this solution, 10 μL of 50 mM of compounds 6, 7, 9, and 11 in DMSO is added and maintained at 50° C. for 10 min. A glutathione stock solution (40 mM) is prepared in 0.1 M phosphate buffer pH 7.4. To 800 μL of 0.1 M phosphate buffer in a glass HPLC vial, 100 μL of glutathione stock solution and 100 μL of formulated prodrug are added. The disappearance of the compound is monitored using an Agilent 1100 series HPLC fitted with a C-18 reverse phase column (Phenomenex Luna 250×4.60 mm) operating at 300 nm and run isocratically with acetonitrile:water (75:25).

Data set [2] has as its system lung adenocarcinoma cells (cell line H441). Briefly: Proliferation of lung adenocarcinoma cells, JS-59-4 with olaparib (FIG. 2). Particulars: combination with the PARP inhibitor olaparib, in comparison to JS-59-4 alone. Type of data set: cell-based, human. On the procedure: FIG. 2 is a bar graph showing a synergistic effect of the administration of JS-59-4 with the PARP inhibitor olaparib in the inhibition of proliferation of lung adenocarcinoma cells (cell line H441). The white bar represents the control (i.e., no treatment). The light gray bar represents the administration of JS-59-4 alone (0.75 μM). The dark gray bar represents the administration of JS-59-4 alone (1 μM). The diagonally hatched bar represents the administration of olaparib alone (5 μM). The cross hatched bar represents the administration of olaparib alone (10 μM). The light gray diagonally gray bar represents the co-administration of JS-59-4 (0.75 μM) and olaparib (5 μM). The dark gray diagonally hatched bar represents the co-administration of JS-59-4 (1 μM) and olaparib (5 μM). The light gray cross hatched gray bar represents the co-administration of JS-59-4 (0.75 μM) and olaparib (10 μM). The dark gray cross hatched bar represents the co-administration of JS-59-4 (1 μM) and olaparib (10 μM).

In the next data set the test system is H1703 cells. In words: H1703 xenograft in athymic NCr-nu/nu mice, tumor weights (Example 10). In kind it is in vivo. The conditions noted are these: 8 micromols/kg i.v., three times a week for three weeks. On the procedure: H1703 cells are harvested at 80% confluence, washed with PBS, and suspended in PBS. The cells are injected at 5×10^6 s.c. into a flank of 7-week-old female athymic NCr-nu/nu mice (Charles River). […] Animals are treated three times a week for three weeks with i.v. tail vein injections of either vehicle (2.25% P-123 in PBS) or 1 or 2 (6 micromols/kg in the vehicle) or 6 (8 micromols/kg). Body weights are taken before each drug injection. Animals are sacrificed two hours after the last drug injection and the tumors are excised and weighed. There are 13-15 mice/group at termination. The non-parametric Mann-Whitney test is utilized for statistical comparisons of tumor weights.

Where only a bound is given, the exact number is not on record here.

Take `O=S(=O)(O)c1cc(O)c(O)c(S(=O)(=O)O)c1` [Tiron]: the “SAPK/JNK and p38 phosphorylation by JS-36-25” value in the data set on SAPK/JNK and p38 is “significantly reduces”. The “effect on JS-K toxicity” value in the data set with H1703 cell line is listed as “protective effect”.
Regarding `CCOC(=O)N1CCCN(/[N+]([O-])=N/Oc2cc(C)c([N+](=O)[O-])cc2[N+](=O)[O-])CC1` [Compound 7, O^2-(2,4-dinitrophenyl-5-methyl) 1-[(4-ethoxycarbonyl)homopiperazin-1-yl]diazen-1-ium-1,2-diolate], the half-inhibitory concentration (IC50) in the data set on H1373 is 3 µM; in the data set on H1703, 1.66 µM; in the data set with H1944, more than 10 µM; in the data set on H2122, 10 µM; in the data set with H441 it was 2.02 µM. For the same compound, the “t½ (min) Mean (SE)” value in [1] is listed as 25.7 (1.0) min.
Consider `CCOC(=O)N1CCCN(/[N+]([O-])=N/Oc2cc(OC)c([N+](=O)[O-])cc2[N+](=O)[O-])CC1` [Compound 11, O^2-(2,4-dinitrophenyl-5-methoxy) 1-[(4-ethoxycarbonyl)homopiperazin-1-yl]diazen-1-ium-1,2-diolate], for which the IC50 was 3.08 µM with H1373; 1.82 µM in the data set with H1703; more than 10 µM in the data set with H1944; 10 µM with H2122; 3.15 µM with H441. Besides, the “t½ (min) Mean (SE)” value in data set [1] was 59.6 (4.2) min.
As to `CCOC(=O)N1CCN(/[N+]([O-])=N/Oc2ccc([N+](=O)[O-])cc2C#N)CC1` [JS-59-4], in [1], the “half-life upon treatment with glutathione (GSH)” value is reported as “prolonged half-life”. The “antiproliferative activity of the combination” value in [2] was “significantly enhanced antiproliferative activity”.
With `CCOC(=O)N1CCN(/[N+]([O-])=N/Oc2cc(C)c([N+](=O)[O-])cc2[N+](=O)[O-])CC1` [Compound 6, O^2-(2,4-dinitrophenyl-5-methyl) 1-[(4-ethoxycarbonyl)piperazin-1-yl]diazen-1-ium-1,2-diolate], the IC50 in the data set with H1373 was 1.86 µM; in the data set with H1703, 0.97 µM; in the data set with H1944, more than 10 µM; in the data set on H2122, 7 µM; with H441, 1.61 µM. Besides, the “t½ (min) Mean (SE)” value in [1] is given as 71.5 (4.3) min. Moreover, the “H1703 tumor growth in vivo” value with H1703 cells is “did not result in reduction”.
On to `CCOC(=O)N1CCN(/[N+]([O-])=N/Oc2ccc(C#N)cc2[N+](=O)[O-])CC1` [JS-59-131], for which, in [1], the “half-life upon treatment with glutathione (GSH)” value was “prolonged half-life”.
Turning to `CCOC(=O)N1CCN(/[N+]([O-])=N/Oc2cc(OC)c([N+](=O)[O-])cc2[N+](=O)[O-])CC1` [Compound 9, O^2-(2,4-dinitrophenyl-5-methoxy) 1-[(4-ethoxycarbonyl)piperazin-1-yl]diazen-1-ium-1,2-diolate], the IC50 in the data set with H1373 was 2.1 µM; with H1703, 1.57 µM; with H1944, more than 10 µM; in the data set with H2122, 5.78 µM; in the data set with H441, 2.5 µM. In addition, the “t½ (min) Mean (SE)” value in data set [1] is given as 38.6 (2.8) min.
